“Also recorded” adds a separate entry of the source.
Experiments:
[1] = target: T1, human wild-type CFTR (Homo sapiens, UniProt P13569); test: Short-circuit current in FRT cells expressing wild-type human CFTR; assay type: cell-based; conditions: short-circuit current, wild-type CFTR
T1 construct: expressed in transfected cells
Method: Short-circuit current measurement. Short-circuit current was measured in FRT cells stably expressing wild-type human CFTR cultured on porous filters as described. The basolateral solution contained 130 mM NaCl, 2.7 mM KCl, 1.5 mM KH2PO4, 1 mM CaCl2, 0.5 mM MgCl2, 10 mM glucose, and 10 mM Na-HEPES (pH 7.3, 37° C.). In the apical solution 65 mM NaCl was replaced by Na gluconate, and CaCl2 was increased to 2 mM, and the basolateral membrane was permeabilized with 250 μg/ml amphotericin B. Short-circuit current was measured in freshly harvested adult mouse colon at 37° C. using symmetrical Krebs-bicarbonate buffer.
Short-circuit current. Fischer rat thyroid (FRT) cells stably expressing wild-type human CFTR were cultured on Snapwell inserts (Corning Costar, Corning N.Y., USA) for short-circuit current (Isc) measurements. After 6-9 days in culture, when the transepithelial resistance was >1000 Ω/cm^2, the inserts were mounted in an Ussing chamber system (World Precision Instruments, Sarasota, Fla., USA). The basolateral solution contained 130 mM NaCl, 2.7 mM KCl, 1.5 mM KH2PO4, 1 mM CaCl2, 0.5 mM MgCl2, 10 mM glucose, and 10 mM Na-HEPES (pH 7.3). In the apical bathing solution, 65 mM NaCl was replaced by Na gluconate, and CaCl2 was increased to 2 mM. Both solutions were bubbled with air and maintained at 37° C. The basolateral membrane was permeabilized with 250 μg/ml amphotericin B (26, 27). Hemichambers were connected to a DVC-1000 voltage clamp via Ag/AgCl electrodes and 3 M KCl agar bridges for Isc recording.

[2] = Pharmacokinetics after ip or oral administration; assay type: in vivo, mouse
Method: Pharmacokinetics. All animal experiments were approved by UCSF Institutional Animal Care and Use Committee. Female CD1 mice were treated with 10 mg/kg CFTRact-J027 (saline containing 5% DMSO and 10% Kolliphor HS 15) either intraperitoneally (ip) or orally. Blood was collected at 15, 30, 60, 150, 240 and 360 min after treatment by orbital puncture and centrifuged at 5000 rpm for 15 min to separate plasma. Plasma samples (60 μL) were mixed with 300 μL acetonitrile and centrifuged at 13000 rpm for 20 min, and 90 μL of the supernatant was used for LC/MS. The solvent system consisted of a linear gradient from 5 to 95% acetonitrile over 16 min (0.2 ml/min flow). Mass spectra was acquired on a mass spectrometer (Waters 2695 and Micromass ZQ) using electrospray (+) ionization, mass ranging from 100 to 1500 Da, cone voltage 40 V. Calibration standards were prepared in plasma from untreated mice to which known amounts of CFTRact-J027 were added.

[3] = Ocular toxicity after chronic topical dosing (slit-lamp, lissamine green); assay type: in vivo; conditions: chronically treated mice
Method: Lissamine green staining. To assess corneal epithelial disruption, 5 μL of lissamine green (LG) dye (1%) was applied to the ocular surface of isofluorane-anesthetized mice. Photographs of the eye were taken using a Nikon Digital camera adapted to an Olympus Zoom Stereo Microscope (Olympus, Center Valley, Pa., USA). Each corneal quadrant was scored on a 3-point scale by one blinded, trained observer, with the extent of staining in each quadrant classified as: 0, no staining; 1, sporadic (involving <25% of the total surface) staining; grade 2, diffuse punctate staining (25-75%); and grade 3, coalesced punctate staining (>75%). The total grade is reported as the sum of scores from all four quadrants, ranging from 0 to 12.

T1 sequence (P13569 whole entry): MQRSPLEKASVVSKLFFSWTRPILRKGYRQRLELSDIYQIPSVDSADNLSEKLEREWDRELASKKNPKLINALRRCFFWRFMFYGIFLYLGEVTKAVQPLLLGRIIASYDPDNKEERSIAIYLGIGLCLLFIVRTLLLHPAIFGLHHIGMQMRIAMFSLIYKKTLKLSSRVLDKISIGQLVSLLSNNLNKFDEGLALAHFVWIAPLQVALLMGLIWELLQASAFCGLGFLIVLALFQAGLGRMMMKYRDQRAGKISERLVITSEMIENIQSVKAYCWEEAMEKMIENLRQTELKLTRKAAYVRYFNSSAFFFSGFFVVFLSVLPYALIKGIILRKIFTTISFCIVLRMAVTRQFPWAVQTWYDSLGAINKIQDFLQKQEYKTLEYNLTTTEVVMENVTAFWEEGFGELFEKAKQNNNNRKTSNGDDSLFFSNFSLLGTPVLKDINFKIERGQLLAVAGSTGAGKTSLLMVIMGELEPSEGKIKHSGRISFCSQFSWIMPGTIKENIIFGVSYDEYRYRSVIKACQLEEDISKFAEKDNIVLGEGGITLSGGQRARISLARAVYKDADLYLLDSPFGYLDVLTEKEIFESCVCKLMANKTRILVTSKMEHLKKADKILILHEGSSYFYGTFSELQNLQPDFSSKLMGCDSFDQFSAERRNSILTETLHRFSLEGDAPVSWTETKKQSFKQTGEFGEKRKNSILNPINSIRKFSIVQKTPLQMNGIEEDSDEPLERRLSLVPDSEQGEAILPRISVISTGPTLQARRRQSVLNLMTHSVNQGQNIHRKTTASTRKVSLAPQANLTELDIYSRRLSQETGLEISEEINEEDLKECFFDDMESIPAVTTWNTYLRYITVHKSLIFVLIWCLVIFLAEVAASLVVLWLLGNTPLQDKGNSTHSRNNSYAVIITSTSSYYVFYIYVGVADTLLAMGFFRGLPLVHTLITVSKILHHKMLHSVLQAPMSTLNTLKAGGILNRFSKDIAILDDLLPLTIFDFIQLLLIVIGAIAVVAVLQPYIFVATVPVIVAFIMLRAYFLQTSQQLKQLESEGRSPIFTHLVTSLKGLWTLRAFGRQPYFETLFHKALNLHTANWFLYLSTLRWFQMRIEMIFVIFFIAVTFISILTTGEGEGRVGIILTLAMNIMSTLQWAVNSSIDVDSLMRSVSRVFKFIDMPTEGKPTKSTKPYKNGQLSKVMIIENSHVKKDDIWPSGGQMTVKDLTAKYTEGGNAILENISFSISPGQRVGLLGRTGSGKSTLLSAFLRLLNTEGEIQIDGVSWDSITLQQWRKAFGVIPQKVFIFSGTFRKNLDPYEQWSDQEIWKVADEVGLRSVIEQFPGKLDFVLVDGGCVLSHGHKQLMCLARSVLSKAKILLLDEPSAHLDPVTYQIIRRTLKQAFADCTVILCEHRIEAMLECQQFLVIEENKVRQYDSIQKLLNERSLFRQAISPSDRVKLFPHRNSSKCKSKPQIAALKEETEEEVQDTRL

Compound: Nc1ccc([N+](=O)[O-])cc1-c1nc2ccccc2n(Cc2ccccc2)c1=O [CFTRact-J027, 3-(2-amino-5-nitrophenyl)-1-benzylquinoxalin-2(1H)-one]
- CFTR activation (in words) [1]: fully activated CFTR chloride conductance
- elimination half-life of serum concentration ([2]; 10 mg/kg ip): ~16 min
- bioavailability (in words) ([2]; 10 mg/kg oral): very low bioavailability; also recorded: minimal bioavailability
- blood levels relative to EC50 for CFTR activation ([2]; 10 mg/kg oral): well below the EC50
- LG staining, corneal or conjunctival epithelial disruption [3]: no corneal or conjunctival epithelial disruption
- ocular toxicity by slit-lamp evaluation [3]: no signs of ocular toxicity

Reference: patent publication US11192869B2, “CFTR regulators and methods of use thereof” (THE REGENTS OF THE UNIVERSITY OF CALIFORNIA, priority 2015, dated 2021)
